Test [1] concerns the target T1, mutant MGL (Homo sapiens, UniProt Q99685, L169S/L176S).
T1 sequence (Q99685 1-303 L169S/L176S): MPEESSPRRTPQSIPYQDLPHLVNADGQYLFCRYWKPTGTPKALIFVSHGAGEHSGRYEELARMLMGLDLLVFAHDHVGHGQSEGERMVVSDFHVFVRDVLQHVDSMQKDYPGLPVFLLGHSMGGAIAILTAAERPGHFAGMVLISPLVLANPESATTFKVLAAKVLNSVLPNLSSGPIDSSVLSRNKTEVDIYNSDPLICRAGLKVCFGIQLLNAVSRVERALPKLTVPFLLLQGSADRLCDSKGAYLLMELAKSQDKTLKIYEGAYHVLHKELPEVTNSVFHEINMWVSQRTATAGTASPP
Briefly: MGL ThermoFluor assay - mutant. Conditions: read-out: MGL mutant ThermoFluor Kd. Format: binding. In general terms: DSF heats the sample and reads unfolding from a dye or from intrinsic fluorescence.

In test [2] the target is T2, MGL (Rattus norvegicus, UniProt Q8R431).
T2 construct: one g rat brain was homogenized using a Polytron homogenizer; from tissue; host or cells: rat brain homogenate
T2 sequence (Q8R431 1-303): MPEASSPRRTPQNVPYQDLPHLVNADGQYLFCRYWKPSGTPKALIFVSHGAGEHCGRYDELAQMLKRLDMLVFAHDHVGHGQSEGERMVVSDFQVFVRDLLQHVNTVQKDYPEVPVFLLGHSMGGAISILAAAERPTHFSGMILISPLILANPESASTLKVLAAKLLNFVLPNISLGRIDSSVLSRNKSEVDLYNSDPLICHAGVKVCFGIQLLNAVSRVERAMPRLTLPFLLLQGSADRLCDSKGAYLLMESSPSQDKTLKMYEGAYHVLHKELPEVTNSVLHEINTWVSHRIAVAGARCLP
The test can be described thus: 2-AG accumulation assay in rat brain homogenate. The settings on record: rat brain homogenate, 2-AG accumulation as percent of vehicle; for 2-AG accumulation, % of vehicle control at 10 µM: compound 10 μM, read-out: Rat Brain 2AG % VehCntrl (%) @ 10 μM; for 2-AG accumulation, % of vehicle control at 1 µM: read-out: Rat Brain 2AG % VehCntrl (%) @ 1 μM. Format: biochemical.

The mark [3] stands for this setting: ThermoFluor thermal stability binding assay.
Setting [4] is: ThermoFluor concentration-response.

The results in this text go back to patent US8362000B2, “Azetidinyl diamides as monoacylglycerol lipase inhibitors” (Janssen Pharmaceutica NV, priority 2009, dated 2013).

pKd: −log10 of the molar value. Where two headings read alike, the source gives them in different places.

Consider `O=C(c1ccccc1)N1CCN(C2CN(C(=O)c3ccc(OCc4ccc(Cl)c(Cl)c4)cc3)C2)CC1` [Cpd 379, 1-[1-({4-[(3,4-dichlorobenzyl)oxy]phenyl}carbonyl)azetidin-3-yl]-4-(phenylcarbonyl)piperazine], for which the pKd in test [1] (setting [3]) was 7.40. Moreover, the 2-AG accumulation, % of vehicle control at 10 µM in test [2] worked out at 760%.

For the compound `COc1cncc(Oc2ccc(C(=O)N3CC(N4CCN(C(=O)c5nccs5)CC4)C3)cc2)c1` [Cpd 904], the pKd in test [1] (setting [4]) is 6.20. Also, in test [2] (compound 1 μM), the 2-AG accumulation, % of vehicle control at 1 µM worked out at 392%.

For the compound `O=C(c1ccccc1)N1CCN(C2CN(C(=O)c3ccc(-c4ccc(Br)cc4)cc3)C2)CC1` [Cpd 83, 1-{1-[(4′-Bromobiphenyl-4-yl)carbonyl]azetidin-3-yl}-4-(phenylcarbonyl)piperazine], the pKd in test [1] (setting [4]) was 6.95. The 2-AG accumulation, % of vehicle control at 1 µM in test [2] (compound 1 μM) was determined as 105%.

`O=C(c1ccc(-c2ccc(F)cc2F)cc1)N1CC(N2CCN(C(=O)c3cscn3)CC2)C1` [Cpd 226, 1-{1-[(2′,4′-Difluorobiphenyl-4-yl)carbonyl]azetidin-3-yl}-4-(1,3-thiazol-4-ylcarbonyl)piperazine]: the negative-log Kd (pKd) in test [1] (setting [3]) is 7.70. In test [2], the 2-AG accumulation, % of vehicle control at 10 µM stood at 652%.

For `O=C(c1ccccc1)N1CCN(C2CN(C(=O)c3ccc(-c4ccc(Cl)c(C(F)(F)F)c4)cc3Cl)C2)CC1` [Cpd 268, 1-(1-{[3,4′-Dichloro-3′-(trifluoromethyl)biphenyl-4-yl]carbonyl}azetidin-3-yl)-4-(phenylcarbonyl)piperazine], the pKd in test [1] (setting [3]) is 7.60. Besides, in test [2] (compound 1 μM), the 2-AG accumulation, % of vehicle control at 1 µM amounted to 110%.

For the compound `Cc1nc(-c2cccc(Cl)c2)sc1C(=O)N1CC(N2CCN(C(=O)c3cscn3)CC2)C1` [Cpd 1381], the pKd in test [1] (setting [3]) is 7.08. Also, in test [2] (compound 1 μM), the 2-AG accumulation, % of vehicle control at 1 µM was 604%.

With `O=C(c1cc[nH]c1)N1CCN(C2CN(C(=O)c3ccc(-c4ccccc4)cc3)C2)CC1` [Cpd 311, 1-[1-(Biphenyl-4-ylcarbonyl)azetidin-3-yl]-4-(1H-pyrrol-3-ylcarbonyl)piperazine], the pKd in test [1] (setting [3]) was 7.10. Moreover, the 2-AG accumulation, % of vehicle control at 1 µM in test [2] (compound 1 μM) stood at 125%.

As for `O=C(c1cscn1)N1CC(N2CCN(C(=O)c3cc4cc(C(F)(F)F)ccc4s3)C(c3ccccc3)C2)C1` (stereo not shown) [Cpd 905, 2-Phenyl-4-[1-(1,3-thiazol-4-ylcarbonyl)azetidin-3-yl]-1-{[5-(trifluoromethyl)-1-benzothiophen-2-yl]carbonyl}piperazine], the pKd in test [1] (setting [4]) is 7.36. Moreover, in test [2] (compound 1 μM), the 2-AG accumulation, % of vehicle control at 1 µM was determined as 119%.

Take `O=C(c1ccc(-c2ccccc2)cc1)N1CC(N2CCN(C(=O)c3ccns3)CC2)C1` [Cpd 310, 1-[1-(Biphenyl-4-ylcarbonyl)azetidin-3-yl]-4-(isothiazol-5-ylcarbonyl)piperazine]: in test [1] (setting [3]), the negative logarithm of the Kd (pKd) was 6.60. The 2-AG accumulation, % of vehicle control at 1 µM in test [2] (compound 1 μM) worked out at 141%.

In the case of `O=C(c1ccc(SCc2cccnc2)cc1)N1CC(N2CCN(C(=O)c3nccs3)CC2)C1` [Cpd 416], the pKd in test [1] (setting [4]) is 6.80. The 2-AG accumulation, % of vehicle control at 1 µM in test [2] (compound 1 μM) is 228%.

Regarding `O=C(c1cc2ccc(C(F)(F)F)cc2s1)N1CC(N2CCN(C(=O)c3nccs3)CC2)C1` [Cpd 323, 1-(1,3-Thiazol-2-ylcarbonyl)-4-(1-{[6-(trifluoromethyl)-1-benzothiophen-2-yl]carbonyl}azetidin-3-yl)piperazine], in test [1] (setting [3]), the pKd is 8.89. Further, the 2-AG accumulation, % of vehicle control at 10 µM in test [2] was 494%.

`O=C(c1ccc(Sc2cccc(Cl)c2)cc1)N1CC(N2CCN(C(=O)c3nccs3)CC2)C1` [Cpd 428]: in test [1] (setting [4]), the pKd was 8.48. In addition, the 2-AG accumulation, % of vehicle control at 1 µM in test [2] (compound 1 μM) came out at 734%.

As for `O=C(c1nccs1)N1CCN(C2CN(C(=O)c3ccc(-c4ccccc4)cc3F)C2)CC1` [Cpd 1405, 1-{1-[(3-Fluorobiphenyl-4-yl)carbonyl]azetidin-3-yl}-4-(1,3-thiazol-2-ylcarbonyl)piperazine], the pKd in test [1] (setting [4]) was 8.70. Besides, the 2-AG accumulation, % of vehicle control at 1 µM in test [2] (compound 1 μM) was 197%.

As for `O=C(c1cscn1)N1CCN(C2CN(C(=O)c3cc4cc(C(F)(F)F)ccc4s3)C2)CC1` [Cpd 908], the pKd in test [1] (setting [3]) was 7.03. Further, the 2-AG accumulation, % of vehicle control at 1 µM in test [2] (compound 1 μM) is 217%.

As for `Cc1cc(-c2ccc(F)c(Cl)c2)ccc1C(=O)N1CC(N2CCN(C(=O)c3ccccc3)CC2)C1` [Cpd 255, 1-{1-[(3′-Chloro-4′-fluoro-3-methylbiphenyl-4-yl)carbonyl]azetidin-3-yl}-4-(phenylcarbonyl)piperazine], the pKd in test [1] (setting [3]) was 7.57. For the same compound, the 2-AG accumulation, % of vehicle control at 1 µM in test [2] (compound 1 μM) is 115%.

With `O=C(c1ccc(-c2ccccc2)c(F)c1)N1CC(N2CCN(C(=O)c3cscn3)CC2)C1` [Cpd 170, 1-{1-[(2-Fluorobiphenyl-4-yl)carbonyl]azetidin-3-yl}-4-(1,3-thiazol-4-ylcarbonyl)piperazine], in test [1] (setting [4]), the negative logarithm of the Kd (pKd) was 7.22. In addition, the 2-AG accumulation, % of vehicle control at 1 µM in test [2] (compound 1 μM) was 205%.

With `O=C(c1ccccc1)N1CCN(C2CN(C(=O)c3ccc(SCc4cccc(Cl)c4Cl)cc3)C2)CC1` [Cpd 411, 1-[1-({4-[(2,3-Dichlorobenzyl)sulfanyl]phenyl}carbonyl)azetidin-3-yl]-4-(phenylcarbonyl)piperazine], the pKd in test [1] (setting [4]) is 7.48. The 2-AG accumulation, % of vehicle control at 10 µM in test [2] was determined as 741%.

In the case of `O=C(c1ccc2c(c1)CCCN2Cc1ccccc1)N1CC(N2CCN(C(=O)c3nccs3)CC2)C1` [Cpd 370, 1-Benzyl-6-({3-[4-(1,3-thiazol-2-ylcarbonyl)piperazin-1-yl]azetidin-1-yl}carbonyl)-1,2,3,4-tetrahydroquinoline], the pKd in test [1] (setting [3]) is 9.00. In addition, in test [2] (compound 1 μM), the 2-AG accumulation, % of vehicle control at 1 µM turned out to be 888%.

Take `O=C(c1ccccc1)N1CCN(C2CN(C(=O)c3ccc(-c4ccccc4)cc3F)C2)CC1` [Cpd 614]: the pKd in test [1] (setting [4]) was 7.18. Further, in test [2] (compound 1 μM), the 2-AG accumulation, % of vehicle control at 1 µM stood at 87%.

As for `O=C(c1cscn1)N1CCN(C2CN(C(=O)c3cc4cccc(C(F)(F)F)c4s3)C2)CC1` [Cpd 332, 1-(1,3-Thiazol-4-ylcarbonyl)-4-(1-{[7-(trifluoromethyl)-1-benzothiophen-2-yl]carbonyl}azetidin-3-yl)piperazine], in test [1] (setting [3]), the pKd was 6.96. Further, the 2-AG accumulation, % of vehicle control at 1 µM in test [2] (compound 1 μM) came out at 182%.

For the compound `CC(C)COc1cccc(-c2ccc(C(=O)N3CC(N4CCN(C(=O)c5nccs5)CC4)C3)cc2)c1` [Cpd 221, 1-(1-{[3′-(2-Methylpropoxy)biphenyl-4-yl]carbonyl}azetidin-3-yl)-4-(1,3-thiazol-2-ylcarbonyl)piperazine], the 2-AG accumulation, % of vehicle control at 10 µM in test [2] turned out to be 945%.

Regarding `Cc1ccc(F)cc1-c1ccc(C(=O)N2CC(N3CCN(C(=O)c4nccs4)CC3)C2)cc1` [Cpd 177, 1-{1-[(5′-Fluoro-2′-methylbiphenyl-4-yl)carbonyl]azetidin-3-yl}-4-(1,3-thiazol-2-ylcarbonyl)piperazine], the 2-AG accumulation, % of vehicle control at 10 µM in test [2] came out at 768%.

In the case of `O=C(c1ccccc1)N1CCN(C2CN(C(=O)c3ccc(-c4cccc(F)c4)cc3)C2)CC1` [Cpd 195, 1-{1-[(3′-Fluorobiphenyl-4-yl)carbonyl]azetidin-3-yl}-4-(phenylcarbonyl)piperazine], in test [2], the 2-AG accumulation, % of vehicle control at 10 µM is 365%.

Consider `Cc1c(C(=O)N2CC(N3CCN(C(=O)c4ccns4)CC3)C2)sc2cc(C(F)(F)F)ccc12` [Cpd 692], for which the “Rat Brain 2AG % VehCntrl (%) @ 1 μM” value in test [2] (compound 1 μM) worked out at 284%.

Consider `O=C(c1ccccc1)N1CCN(C2CN(C(=O)c3ccc4c(c3)CCN(C(=O)C3CCCCC3)C4)C2)CC1` [Cpd 350, 2-(Cyclohexylcarbonyl)-6-({3-[4-(phenylcarbonyl)piperazin-1-yl]azetidin-1-yl}carbonyl)-1,2,3,4-tetrahydroisoquinoline], for which the 2-AG accumulation, % of vehicle control at 10 µM in test [2] came out at 498%.

For the compound `CC(C)Oc1cccc(-c2ccc(C(=O)N3CC(N4CCN(C(=O)c5ccccc5)CC4)C3)cc2)c1` [Cpd 188, 1-(1-{[3′-(1-Methylethoxy)biphenyl-4-yl]carbonyl}azetidin-3-yl)-4-(phenylcarbonyl)piperazine], the 2-AG accumulation, % of vehicle control at 10 µM in test [2] came out at 506%.

As to `O=C(c1ccc(C(F)(F)F)cc1)N1CCc2cc(C(=O)N3CC(N4CCN(C(=O)c5nccs5)CC4)C3)ccc2C1` [Cpd 907, 6-({3-[4-(1,3-Thiazol-2-ylcarbonyl)piperazin-1-yl]azetidin-1-yl}carbonyl)-2-{[4-(trifluoromethyl)phenyl]carbonyl}-1,2,3,4-tetrahydroisoquinoline], in test [2] (compound 1 μM), the 2-AG accumulation, % of vehicle control at 1 µM turned out to be 867%.

For `O=C(c1ccc2c(c1)ncn2-c1ccc(F)c(F)c1)N1CC(N2CCN(C(=O)c3nccs3)CC2)C1` [Cpd 1186], in test [2] (compound 1 μM), the 2-AG accumulation, % of vehicle control at 1 µM is 393%.

Consider `CC(C)(C)OC(=O)N1CCc2cc(C(=O)N3CC(N4CCN(C(=O)c5ccccc5)CC4)C3)ccc2C1` [Cpd 319, tert-Butyl 6-({3-[4-(phenylcarbonyl)piperazin-1-yl]azetidin-1-yl}carbonyl)-3,4-dihydroisoquinoline-2(1H)-carboxylate], for which the 2-AG accumulation, % of vehicle control at 10 µM in test [2] was 396%.

In general, pKd refers to the negative decadic logarithm of the Kd, by convention in mol/L.
